Data from patent US11072581B2, “N-acyl-arylsulfonamide derivatives as aminoacyl-tRNA synthetase inhibitors” (Oxford Drug Design Limited, priority 2015, dated 2021).
Counter-ions that a name gives are not always drawn.

Experiments:
[1] = biological target: T1, EcoVRS (valyl-tRNA synthetase from Escherichia coli) (Escherichia coli, UniProt P07118); assay: aaRS aminoacylation assay (ATP consumption), EcoVRS; type: biochemical; conditions: i.a. = inactive at a concentration below 50 uM
T1 construct: made in house; host or cells: Escherichia coli M15
Experimental: (§1) The compounds have been tested for antibacterial activity in vitro as aminoacyl-tRNA synthetases (aaRS) inhibitors following the following process.
(§2) Leucyl-, valyl- and isoleucyl-tRNA synthetases (LRS, VRS and IRS, respectively) from Escherichia coli (Eco) and Staphylococcus aureus (Sau).
(§3) Escherichia coli M15 cells transformed with plasmid pQE-60, or pQE-70, containing the open-reading frame sequence of one targeted aaRS were induced with 1 mM IPTG (Isopropyl β-D-1-thiogalactopyranoside) for 3 h at 37° C. Bacterial cells were harvested and lysed with 20 mM NaH2PO4 (pH 8.0), 200 mM NaCl, 10 mM imidazole and protease inhibitor cocktail (Roche). Pathogenic aaRS was purified by nickel affinity standard chromatography. Protein concentration was determined by spectrophotometry.
(§4) tRNA^Leu, tRNA^Val and tRNA^Ile from E. coli and S. aureus were transcribed in vitro for 4 h at 37° C. using T7 RNA polymerase. Transcription reaction contained 40 mM Tris-HCl (pH 8.0), 22 mM MgCl2, 1 mM spermidine, 5 mM DTT, 0.01% Triton X-100, 4 mM GTP, 4 mM ATP, 4 mM UTP, 4 mM CTP, 16 mM GMP, […] T7 RNA polymerase and 150 μg BstNI digested plasmid. Once finished, the reaction was applied on a 6% polyacrylamide-8 M urea denaturing gel to purify the transcribed tRNA and discard any impurities. Purified tRNA was quantified with Nanodrop 2000 (Thermo Scientific).
(§5) The aminoacylation reaction catalyzed by aminoacyl-tRNA synthetases (aaRS) takes place in two steps. In the first step, aaRS activates its cognate amino acid with ATP; and in the second step the activated amino acid is loaded to its corresponding tRNA. This reaction can be summarized as follows: ARS+aa+ATP=ARS-aa-AMP+PPi ARS-aa-AMP+tRNA=aa-tRNA+AMP+ARS [2] (ARS, Aminoacyl-tRNA synthetase; aa, amino acid; ARS-aa-AMP, enzyme-bound to aminoacyl-adenylate; aa-tRNA, aminoacyl-tRNA).
(§6) The activity of the pathogenic aaRSs was monitored by measuring the ATP consumption rate, since this consumption is directly proportional to the activity of the aaRS. If the tested compound, at a single point concentration of 50 μM, is inhibiting the aminoacylation reaction, there is a decrease in the ATP consumption, compared to the control reaction without compound, allowing the calculation of an inhibition ratio.
(§7) When the inhibition ratio for a given compound was above 80%, IC50 determination was performed with the same enzymatic assay (using the commercial kit Kinase RR from BioThema AB, Sweden) in the presence of serial dilutions of inhibitor. Known inhibitors of LRS, VRS or IRS were used as a positive control of the assay. The IC50 was calculated based on nonlinear regression analysis.

[2] = biological target: T2, SauLRS (leucyl-tRNA synthetase from Staphylococcus aureus) (Staphylococcus aureus, UniProt Q2FXH2); assay: aaRS aminoacylation assay (ATP consumption), SauLRS; type: biochemical; conditions: i.a. = inactive at a concentration below 50 uM
T2 construct: made in house; host or cells: Escherichia coli M15
T2 sequence (Q2FXH2 1-805): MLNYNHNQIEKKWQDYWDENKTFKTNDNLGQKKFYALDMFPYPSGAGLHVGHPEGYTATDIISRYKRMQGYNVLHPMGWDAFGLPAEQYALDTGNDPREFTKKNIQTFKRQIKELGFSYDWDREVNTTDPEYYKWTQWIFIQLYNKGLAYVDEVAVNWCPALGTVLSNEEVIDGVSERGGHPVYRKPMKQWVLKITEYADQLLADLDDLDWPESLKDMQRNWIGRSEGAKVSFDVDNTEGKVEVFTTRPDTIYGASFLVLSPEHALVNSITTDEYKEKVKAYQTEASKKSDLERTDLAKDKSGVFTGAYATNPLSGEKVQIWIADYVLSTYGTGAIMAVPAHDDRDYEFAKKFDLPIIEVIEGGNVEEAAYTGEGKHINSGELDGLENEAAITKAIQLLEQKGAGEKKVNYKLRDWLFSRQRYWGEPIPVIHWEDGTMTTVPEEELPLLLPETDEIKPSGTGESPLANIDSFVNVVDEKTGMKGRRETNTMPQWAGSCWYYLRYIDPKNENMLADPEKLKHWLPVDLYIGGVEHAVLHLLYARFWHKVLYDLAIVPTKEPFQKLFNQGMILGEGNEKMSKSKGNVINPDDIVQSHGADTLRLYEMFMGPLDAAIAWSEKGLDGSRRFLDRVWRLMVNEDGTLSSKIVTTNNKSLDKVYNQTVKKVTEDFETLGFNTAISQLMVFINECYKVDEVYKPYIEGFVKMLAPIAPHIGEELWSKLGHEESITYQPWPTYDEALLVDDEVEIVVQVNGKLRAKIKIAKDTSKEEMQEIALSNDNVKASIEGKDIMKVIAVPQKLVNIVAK
Experimental: as §1, §2, §3, §4, §5, §6, §7

[3] = biological target: T3, SauVRS (valyl-tRNA synthetase from Staphylococcus aureus) (Staphylococcus aureus, UniProt Q2FXR8); assay: aaRS aminoacylation assay (ATP consumption), SauVRS; type: biochemical; conditions: i.a. = inactive at a concentration below 50 uM
T3 construct: made in house; host or cells: Escherichia coli M15
T3 sequence (Q2FXR8 1-876): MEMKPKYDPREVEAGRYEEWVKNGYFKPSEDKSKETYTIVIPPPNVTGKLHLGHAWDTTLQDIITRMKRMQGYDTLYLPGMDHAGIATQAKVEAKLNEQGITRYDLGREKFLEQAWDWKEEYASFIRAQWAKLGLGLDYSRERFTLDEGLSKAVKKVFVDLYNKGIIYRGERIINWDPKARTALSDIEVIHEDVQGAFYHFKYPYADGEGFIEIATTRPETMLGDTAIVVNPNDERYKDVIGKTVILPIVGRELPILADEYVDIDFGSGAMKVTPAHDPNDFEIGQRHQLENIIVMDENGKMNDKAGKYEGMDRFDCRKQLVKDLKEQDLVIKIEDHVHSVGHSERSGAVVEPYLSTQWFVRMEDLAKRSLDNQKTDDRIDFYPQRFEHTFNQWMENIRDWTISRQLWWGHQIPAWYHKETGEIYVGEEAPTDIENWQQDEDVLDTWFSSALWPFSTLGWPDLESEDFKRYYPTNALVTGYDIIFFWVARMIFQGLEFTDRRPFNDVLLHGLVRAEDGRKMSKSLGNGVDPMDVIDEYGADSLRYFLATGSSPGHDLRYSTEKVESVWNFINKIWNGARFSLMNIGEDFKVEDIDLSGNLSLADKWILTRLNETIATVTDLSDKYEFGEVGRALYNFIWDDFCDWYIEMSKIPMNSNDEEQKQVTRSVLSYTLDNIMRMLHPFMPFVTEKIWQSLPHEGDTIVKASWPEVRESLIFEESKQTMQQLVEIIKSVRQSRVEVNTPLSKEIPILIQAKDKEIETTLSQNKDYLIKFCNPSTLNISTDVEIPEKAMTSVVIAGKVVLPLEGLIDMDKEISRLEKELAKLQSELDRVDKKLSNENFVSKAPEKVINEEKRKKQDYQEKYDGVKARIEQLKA
Experimental: as §1, §2, §3, §4, §5, §6, §7

[4] = biological target: T4, EcoLRS (leucyl-tRNA synthetase from Escherichia coli) (Escherichia coli, UniProt P07813); assay: aaRS aminoacylation assay (ATP consumption), EcoLRS; type: biochemical; conditions: for % at single point concentration (inhibition ratio), EcoLRS: @50 μM compound
T4 construct: made in house; host or cells: Escherichia coli M15
Experimental: as §1, §2, §3, §4, §5, §6, §7

[5] = biological target: T5, EcoIRS (isoleucyl-tRNA synthetase from Escherichia coli) (Escherichia coli, UniProt P00956); assay: aaRS aminoacylation assay (ATP consumption), EcoIRS; type: biochemical; conditions: i.a. = inactive at a concentration below 50 uM
T5 construct: made in house; host or cells: Escherichia coli M15
Experimental: as §1, §2, §3, §4, §5, §6, §7

T4 sequence (P07813 whole entry): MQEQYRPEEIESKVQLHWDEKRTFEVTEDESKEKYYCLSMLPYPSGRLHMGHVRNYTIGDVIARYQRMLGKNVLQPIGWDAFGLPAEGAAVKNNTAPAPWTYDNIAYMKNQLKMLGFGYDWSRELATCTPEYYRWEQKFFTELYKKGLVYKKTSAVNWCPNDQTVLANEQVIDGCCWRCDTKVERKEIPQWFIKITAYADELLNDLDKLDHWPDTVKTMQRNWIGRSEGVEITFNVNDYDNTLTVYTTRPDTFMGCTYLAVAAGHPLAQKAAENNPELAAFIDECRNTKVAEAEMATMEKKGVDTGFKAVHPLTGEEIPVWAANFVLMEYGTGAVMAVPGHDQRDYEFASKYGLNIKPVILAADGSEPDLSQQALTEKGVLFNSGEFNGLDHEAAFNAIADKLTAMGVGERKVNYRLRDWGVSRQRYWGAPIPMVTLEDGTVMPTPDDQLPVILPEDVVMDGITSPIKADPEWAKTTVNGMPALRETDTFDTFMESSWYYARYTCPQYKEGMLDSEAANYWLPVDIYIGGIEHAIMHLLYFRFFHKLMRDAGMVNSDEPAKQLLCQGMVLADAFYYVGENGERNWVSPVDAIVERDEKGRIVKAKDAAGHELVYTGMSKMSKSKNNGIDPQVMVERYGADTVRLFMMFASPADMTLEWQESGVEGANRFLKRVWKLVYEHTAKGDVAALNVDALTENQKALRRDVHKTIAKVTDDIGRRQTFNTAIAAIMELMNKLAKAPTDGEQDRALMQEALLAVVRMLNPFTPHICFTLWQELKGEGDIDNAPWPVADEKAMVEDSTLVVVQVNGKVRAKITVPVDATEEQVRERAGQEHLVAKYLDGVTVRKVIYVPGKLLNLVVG
T5 sequence (P00956 whole entry): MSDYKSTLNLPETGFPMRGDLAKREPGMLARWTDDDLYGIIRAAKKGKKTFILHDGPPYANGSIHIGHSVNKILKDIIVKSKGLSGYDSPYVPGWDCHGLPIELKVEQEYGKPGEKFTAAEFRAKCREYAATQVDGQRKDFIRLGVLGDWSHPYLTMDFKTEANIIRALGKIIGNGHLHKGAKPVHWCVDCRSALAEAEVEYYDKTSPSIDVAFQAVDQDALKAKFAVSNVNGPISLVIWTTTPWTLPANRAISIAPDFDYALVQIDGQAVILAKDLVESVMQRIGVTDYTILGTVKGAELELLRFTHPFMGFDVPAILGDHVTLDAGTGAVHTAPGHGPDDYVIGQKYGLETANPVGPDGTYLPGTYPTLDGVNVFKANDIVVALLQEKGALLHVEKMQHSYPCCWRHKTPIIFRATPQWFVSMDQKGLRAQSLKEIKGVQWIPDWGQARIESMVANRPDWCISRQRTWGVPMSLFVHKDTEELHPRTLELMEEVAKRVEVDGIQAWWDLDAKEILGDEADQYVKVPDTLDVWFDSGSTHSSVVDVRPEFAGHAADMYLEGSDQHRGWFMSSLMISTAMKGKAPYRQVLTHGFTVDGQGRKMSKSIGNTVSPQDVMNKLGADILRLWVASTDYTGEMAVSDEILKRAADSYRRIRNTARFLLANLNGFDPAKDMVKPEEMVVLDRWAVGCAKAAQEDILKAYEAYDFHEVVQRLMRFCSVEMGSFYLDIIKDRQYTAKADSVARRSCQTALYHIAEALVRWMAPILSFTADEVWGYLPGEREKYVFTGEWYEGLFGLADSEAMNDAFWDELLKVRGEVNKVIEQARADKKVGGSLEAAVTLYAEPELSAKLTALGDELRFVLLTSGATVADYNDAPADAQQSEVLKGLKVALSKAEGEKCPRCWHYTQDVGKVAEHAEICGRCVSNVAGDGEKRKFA
T1 sequence (P07118 whole entry): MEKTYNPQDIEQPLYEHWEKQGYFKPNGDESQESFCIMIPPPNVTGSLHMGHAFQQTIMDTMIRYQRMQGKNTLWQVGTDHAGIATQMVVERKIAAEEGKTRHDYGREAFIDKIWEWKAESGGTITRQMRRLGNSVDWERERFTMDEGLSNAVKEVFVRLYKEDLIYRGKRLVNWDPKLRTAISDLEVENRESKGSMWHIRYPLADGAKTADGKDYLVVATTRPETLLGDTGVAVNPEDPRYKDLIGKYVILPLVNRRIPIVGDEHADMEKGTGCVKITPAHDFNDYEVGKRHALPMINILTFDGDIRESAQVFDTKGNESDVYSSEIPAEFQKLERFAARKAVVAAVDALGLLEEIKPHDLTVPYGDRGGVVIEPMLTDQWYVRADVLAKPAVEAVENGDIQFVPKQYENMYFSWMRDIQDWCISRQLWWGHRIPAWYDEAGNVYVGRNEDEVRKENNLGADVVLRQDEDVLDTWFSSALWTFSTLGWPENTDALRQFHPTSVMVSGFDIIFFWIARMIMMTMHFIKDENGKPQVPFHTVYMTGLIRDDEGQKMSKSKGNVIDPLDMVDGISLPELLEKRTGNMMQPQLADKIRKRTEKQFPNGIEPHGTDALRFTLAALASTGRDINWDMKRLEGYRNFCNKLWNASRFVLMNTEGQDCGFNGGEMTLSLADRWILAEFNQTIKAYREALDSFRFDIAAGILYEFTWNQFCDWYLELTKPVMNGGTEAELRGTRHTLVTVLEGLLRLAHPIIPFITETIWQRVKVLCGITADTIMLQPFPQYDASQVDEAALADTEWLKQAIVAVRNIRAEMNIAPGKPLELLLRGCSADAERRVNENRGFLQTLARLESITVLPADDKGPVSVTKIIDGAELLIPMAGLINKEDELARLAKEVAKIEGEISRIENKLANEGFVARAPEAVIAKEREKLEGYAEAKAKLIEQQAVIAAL

## CC(C)C[C@H](N)C(=O)NS(=O)(=O)c1cccc2c(N(C)C)cccc12 (as salt: hydrochloride) [Compound 5.16, (S)-2-amino-N-((5-(dimethylamino)naphthalen-1-yl)sulfonyl)-4-methylpentanamide hydrochloride]
other
  melting point: 178 to 180 °C

## CC(C)C[C@H](N)C(=O)NS(=O)(=O)c1cccc2cc(C(N)=O)ncc12 (as salt: salt) [Compound 5.24, 8-(N-(L-Leucyl)sulfamoyl)isoquinoline-3-carboxamide]
other
  melting point: 222.9 °C

## CC(C)C[C@H](N)C(=O)NS(=O)(=O)c1ccc(Br)c2ccncc12 (as salt: trifluoroacetate) [Compound 5.22]
other
  melting point: 137 to 139 °C

## CC(C)C[C@H](N)C(=O)NS(=O)(=O)c1cccc2c1CNCC2 (as salt: trifluoroacetate) [Compound 5.26, (S)-2-amino-4-methyl-N-((1,2,3,4-tetrahydroisoquinolin-8-yl)sulfonyl) pentanamide trifluoroacetate]
other
  melting point: 90 to 92 °C

## CC(C)C[C@H](N)C(=O)NS(=O)(=O)c1ccc(F)cc1 [Compound 5.8]
other
  melting point: 235 to 236 °C

## COc1ccc(S(=O)(=O)NC(=O)[C@@H](N)CC(C)C)c2ccccc12 [Compound 5.18]
other
  melting point: 253 to 255 °C

## CC(C)C[C@H](N)C(=O)NS(=O)(=O)c1ccccn1 [Compound 5.20]
other
  melting point: 203 to 205 °C

## CC(C)C[C@H](N)C(=O)NS(=O)(=O)c1ccc(O)c2ccccc12 [Compound 5.23]
other
  melting point: 250 to 252 °C

## Cc1cc(-c2cccc(S(=O)(=O)NC(=O)[C@@H](N)C3CCCCC3)c2)nc(N)n1 [Compound 5.32]
[1]
  IC50 EcoVRS: i.a
[2]
  IC50 SauLRS: i.a
[3]
  IC50 SauVRS: i.a
[4]
  IC50: 38 µM
[5]
  IC50 EcoIRS: i.a

## CC(C)C[C@H](N)C(=O)NS(=O)(=O)c1cccc(-c2cc(OC(C)C)nc(N)n2)c1 [Compound 5.51]
[4]
  % at single point concentration (inhibition ratio), EcoLRS: 102%@50 μM

## CC(C)C[C@H](N)C(=O)NS(=O)(=O)c1cccc(-c2cc(Oc3ccccc3)nc(N)n2)c1 [Compound 5.52]
[4]
  % at single point concentration (inhibition ratio), EcoLRS: 104%@50 μM
